# Experimental data: the supplement of paper PMC10307832
# Assays:
# Assay in all cases: relative viability (nuclei count vs DMSO), 5 days (fraction); higher = more cells survive
# Vismodegib + Pictilisib = compound: CS(=O)(=O)c1ccc(C(=O)Nc2ccc(Cl)c(-c3ccccn3)c2)c(Cl)c1 [Vismodegib] + CS(=O)(=O)N1CCN(Cc2cc3nc(-c4cccc5[nH]ncc45)nc(N4CCOCC4)c3s2)CC1 [Pictilisib] (partner 1 µM)
# How it was run: (§1)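 A single step with final 0.05% Triton X-100, 1% formaldehyde and 1 ug/ml Hoechst fixed the cells and stained nuclei 5 days after treatment. Lung cancer cell lines in 1536-well plates had been treated by pin tool the day after seeding with one drug alone or a fixed anchor-drug dose plus five library-drug doses (not always all listed) in √10 steps, and nuclei were counted on 4× images. Relative viability is the ratio of nuclei in treated wells to nuclei in vehicle wells, taken as the median of duplicate plates.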
# Vismodegib + Tozasertib = compound: CS(=O)(=O)c1ccc(C(=O)Nc2ccc(Cl)c(-c3ccccn3)c2)c(Cl)c1 [Vismodegib] + Cc1cc(Nc2cc(N3CCN(C)CC3)nc(Sc3ccc(NC(=O)C4CC4)cc3)n2)n[nH]1 [Tozasertib] (partner 0.1 µM)
# How it was run: as §1
# Ruxolitinib + Alpelisib = compound: N#CC[C@H](C1CCCC1)n1cc(-c2ncnc3[nH]ccc23)cn1 [Ruxolitinib] + Cc1nc(NC(=O)N2CCC[C@H]2C(N)=O)sc1-c1ccnc(C(C)(C)C(F)(F)F)c1 [Alpelisib] (partner 2 µM)
# How it was run: as §1
# Ruxolitinib + Olaparib = compound: N#CC[C@H](C1CCCC1)n1cc(-c2ncnc3[nH]ccc23)cn1 [Ruxolitinib] + O=C(c1cc(Cc2n[nH]c(=O)c3ccccc23)ccc1F)N1CCN(C(=O)C2CC2)CC1 [Olaparib] (partner 8 µM)
# How it was run: as §1
cell line,measurement,setting,value
UMC-11,relative viability,Vismodegib + Pictilisib; first compound 0.08 µM,0.727
same,relative viability,Vismodegib + Pictilisib; first compound 0.253 µM,0.703
same,relative viability,Vismodegib + Pictilisib; first compound 0.8 µM,0.738
same,relative viability,Vismodegib + Pictilisib; first compound 2.53 µM,0.75
same,relative viability,Vismodegib + Pictilisib; first compound 8 µM,0.271
same,relative viability,Vismodegib + Tozasertib; first compound 0.08 µM,0.184
same,relative viability,Vismodegib + Tozasertib; first compound 0.253 µM,0.196
same,relative viability,Vismodegib + Tozasertib; first compound 0.8 µM,0.168
same,relative viability,Vismodegib + Tozasertib; first compound 2.53 µM,0.194
same,relative viability,Vismodegib + Tozasertib; first compound 8 µM,0.225
same,relative viability,Ruxolitinib + Alpelisib; first compound 0.08 µM,0.869
same,relative viability,Ruxolitinib + Alpelisib; first compound 0.253 µM,1.02
same,relative viability,Ruxolitinib + Alpelisib; first compound 0.8 µM,1.06
same,relative viability,Ruxolitinib + Alpelisib; first compound 2.53 µM,1.12
same,relative viability,Ruxolitinib + Alpelisib; first compound 8 µM,0.938
same,relative viability,Ruxolitinib + Olaparib; first compound 0.08 µM,0.37
same,relative viability,Ruxolitinib + Olaparib; first compound 0.253 µM,0.894
same,relative viability,Ruxolitinib + Olaparib; first compound 0.8 µM,1.03
same,relative viability,Ruxolitinib + Olaparib; first compound 2.53 µM,0.366
same,relative viability,Ruxolitinib + Olaparib; first compound 8 µM,0.315
